Data on 35 compounds can be found in patent US12319655B2, “RAF kinase inhibitors and methods of use thereof” (Deciphera Pharmaceuticals, LLC, priority 2021, dated 2025).

SMILES strings stand for the structures. pIC50: −log10 of the molar value.

The target in test [1] is C-Raf kinase (SEQ. ID NO: 3) (Homo sapiens (Human), UniProt P04049, Y340D/Y341D). Nature of the test: Biochemical Assay for C-Raf (1). The conditions noted are these: Table J, assay version (1); read-out: CRAF (1) IC50. The essentials: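 Coupled pyruvate kinase/LDH assay tracking NADH oxidation at 340 nm, with 0.43 nM C-Raf, 30.1 nM MEK and 1 mM ATP in pH 7.5 Tris buffer (15 mM MgCl2, 1% DMSO final). Read continuously for 6 h at 30 °C, rate taken from the 4–5 h window. IC50 from four-parameter fit of percent inhibition.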

For test [2], the target named is A-Raf kinase (SEQ. ID No: 1) (Homo sapiens (Human), UniProt P10398, Y301D/Y302D). Nature of the test: Biochemical Assay for A-Raf (1). The conditions noted are these: Table J, assay version (1); read-out: ARAF (1) IC50. The procedure, abridged: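 A-Raf Y301D/Y302D at 5.55 nM phosphorylates 30.1 nM MEK with 1 mM ATP in pH 7.5 Tris buffer, 1% DMSO. Activity was read continuously as NADH oxidation at 340 nm in a pyruvate kinase/lactate dehydrogenase coupled system for 6 h at 30 °C. Rates from 4–5 h were converted to percent inhibition, and IC50 came from a four-parameter fit.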

A further test relates to Miapaca-2 cells. The test is described as follows: MiaPaca-2 Cell Proliferation Assay (1). The conditions noted are these: Homo sapiens, MIA PaCa-2, single agent, read-out: MiaPaca2 (1) IC50. The test is classed as cell-based. The procedure, abridged: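 Resazurin was added after compound exposure and incubated 5-6 h, then fluorescence read at 540 nm excitation and 600 nm emission to give IC50.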

Another test has as its system A375 cells. The test is described as follows: A375 Cell Proliferation Assay (1). The conditions noted are these: Homo sapiens, A-375. Type of test: cell-based. The essentials: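 Resazurin fluorescence (excitation 540 nm, emission 600 nm, after a further 5-6 h) gave IC50s from triplicate compound dilution series.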

Sequence of C-Raf kinase (SEQ. ID NO: 3) (P04049 307-648 Y340D/Y341D): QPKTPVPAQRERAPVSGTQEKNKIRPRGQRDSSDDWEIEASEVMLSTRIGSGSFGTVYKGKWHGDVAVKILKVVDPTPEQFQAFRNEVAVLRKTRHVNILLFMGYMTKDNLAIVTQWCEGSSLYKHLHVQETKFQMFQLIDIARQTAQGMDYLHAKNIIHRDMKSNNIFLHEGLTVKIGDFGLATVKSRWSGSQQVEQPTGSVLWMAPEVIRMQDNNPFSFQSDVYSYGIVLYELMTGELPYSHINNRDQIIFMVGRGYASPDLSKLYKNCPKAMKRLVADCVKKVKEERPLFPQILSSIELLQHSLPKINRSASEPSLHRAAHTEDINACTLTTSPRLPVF
Sequence of A-Raf kinase (SEQ. ID No: 1) (P10398 other isoform, or with tags, fused parts or gaps Y301D (already in the parent)/Y302D (already in the parent)): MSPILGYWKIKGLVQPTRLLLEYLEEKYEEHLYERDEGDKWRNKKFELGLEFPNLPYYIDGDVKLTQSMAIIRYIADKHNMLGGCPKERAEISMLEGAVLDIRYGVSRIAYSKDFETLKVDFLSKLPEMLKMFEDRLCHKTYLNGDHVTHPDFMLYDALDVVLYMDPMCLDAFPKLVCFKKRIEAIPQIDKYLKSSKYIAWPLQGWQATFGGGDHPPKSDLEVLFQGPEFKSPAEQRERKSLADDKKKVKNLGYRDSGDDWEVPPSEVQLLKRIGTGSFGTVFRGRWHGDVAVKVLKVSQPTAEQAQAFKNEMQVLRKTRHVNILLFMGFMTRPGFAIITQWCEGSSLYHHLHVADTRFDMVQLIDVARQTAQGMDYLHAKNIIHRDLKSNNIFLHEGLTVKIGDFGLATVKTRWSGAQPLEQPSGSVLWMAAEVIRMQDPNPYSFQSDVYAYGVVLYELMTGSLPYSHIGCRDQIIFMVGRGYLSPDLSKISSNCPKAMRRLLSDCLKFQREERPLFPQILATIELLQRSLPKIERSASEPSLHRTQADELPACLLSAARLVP

As for `CCOc1cc(-c2cc(NC(=O)c3ccnc(C(F)(F)F)c3)ccc2C)cc(-c2ccnc(NC(=O)C3CC3)c2)n1` [Example 12], the pIC50 in test [1] was ≥ 7.00; in test [2], 5.00 to 6.00; in the test on Miapaca-2 cells, 5.00 to 6.00; in the test on A375 cells, 6.30 to 7.00.

Take `Cc1ccc(NC(=O)c2ccnc(C(F)(F)F)c2)cc1-c1cc(-c2ccnc(NC(=O)C3CC3)c2)n(C)c(=O)c1` [Example 13]: the pIC50 is ≥ 7.00 in test [1], 5.00 to 6.00 in test [2], 5.00 to 6.00 with Miapaca-2 cells and 5.00 to 6.00 in the test with A375 cells.

Regarding `CC(=O)Nc1cc(-c2cc(-c3cc(NC(=O)c4ccnc(C(F)(F)F)c4)ccc3C)cc(C3CC3)n2)ccn1` [Example 14], the pIC50 in test [1] is ≥ 7.00; in test [2], 5.00 to 6.00; with Miapaca-2 cells, 5.00 to 6.00; with A375 cells, ≥ 7.00.

On to `CC(=O)Nc1cc(-c2cc(-c3cc(NC(=O)c4ccnc(C(F)(F)F)c4)ccc3C)cc(N3CCOCC3)n2)ccn1` [Example 15], for which the pIC50 in test [1] is ≥ 7.00; in test [2], 5.00 to 6.00; with Miapaca-2 cells it was 5.00 to 6.00; in the test with A375 cells it was ≥ 7.00.

Regarding `Cc1ccc(NC(=O)c2ccnc(C(F)(F)F)c2)cc1-c1ccnc(-c2ccnc(N)c2)c1` [Example 16, N-(3-(2′-amino-[2,4′-bipyridin]-4-yl)-4-methylphenyl)-2-(trifluoromethyl)isonicotinamide], the pIC50 in test [1] was ≥ 7.00; in test [2], 5.00 to 6.00; with Miapaca-2 cells it was 5.00 to 6.00; with A375 cells, 5.00 to 6.00.

For `Cc1ccc(NC(=O)c2ccnc(C(F)(F)F)c2)cc1-c1ccnc(-c2ccnc(NC(=O)CN(C)C)c2)c1` [Example 17], the pIC50 in test [1] is ≥ 7.00; in test [2] it was 5.00 to 6.00; in the test with Miapaca-2 cells, 5.00 to 6.00; in the test with A375 cells it was 6.30 to 7.00.

Regarding `Cc1ccc(NC(=O)c2ccnc(C(F)(F)F)c2)cc1-c1ccnc(-c2ccnc3c2CC(=O)N3)c1` [Example 18], the pIC50 in test [1] was ≥ 7.00; in test [2], 5.00 to 6.00; in the test on Miapaca-2 cells, 5.00 to 6.00; in the test with A375 cells, 5.00 to 6.00.

With `CC(=O)Nc1cc(-c2cc(-c3cc(NC(=O)c4ccnc(C(C)(C)C#N)c4)ccc3C)ccn2)ccn1` [Example 19], the pIC50 in test [1] is ≥ 7.00; in test [2], 6.00 to 6.30; in the test with Miapaca-2 cells, 6.30 to 7.00; in the test with A375 cells it was ≥ 7.00.

For the compound `Cc1cc(-c2cc(NC(=O)c3ccnc(C(F)(F)F)c3)ccc2C)cc(-c2ccnc3c2CC(=O)N3)n1` [Example 20], the pIC50 in test [1] is ≥ 7.00; in test [2], 5.00 to 6.00; with Miapaca-2 cells, 5.00 to 6.00; in the test on A375 cells, 5.00 to 6.00.

On to `Cc1ccc(NC(=O)c2cc(CN(C)C)cc(C(F)(F)F)c2)cc1-c1cncc(-c2ccnc(NC(=O)C3CC3)c2)n1` [Example 185], for which the figures for the pIC50 (in test [1]; in test [2]; with A375 cells) were ≥ 7.00, 6.30 to 7.00 and ≥ 7.00, respectively.

As to `Cc1ccc(NC(=O)c2ccnc(C(C)(C)F)c2)cc1-c1ccnc(-c2ccnc(NC(=O)C3CC3)c2)n1` [Example 186], the pIC50 in test [1] was ≥ 7.00; in test [2], 6.00 to 6.30; with Miapaca-2 cells it was 5.00 to 6.00; in the test on A375 cells, ≥ 7.00.

Regarding `Cc1ccc(NC(=O)c2ccnc(C3(C#N)CC3)c2)cc1-c1nccc(-c2ccnc(NC(=O)C3CC3)c2)n1` [Example 187], the pIC50 was ≥ 7.00 in test [1], 6.30 to 7.00 in test [2], 5.00 to 6.00 in the test with Miapaca-2 cells and ≥ 7.00 in the test on A375 cells.

With `Cc1ccc(NC(=O)c2ccnc(C(F)F)c2)cc1-c1ccnc(-c2ccnc(NC(=O)C3CC3)c2)n1` [Example 189], the pIC50 in test [1] was ≥ 7.00; in test [2] it was 6.00 to 6.30; in the test with Miapaca-2 cells it was 5.00 to 6.00; in the test with A375 cells it was 6.30 to 7.00.

`COC(C)(C)c1cc(C(=O)Nc2ccc(C)c(-c3ccnc(-c4ccnc(NC(=O)C5CC5)c4)n3)c2)ccn1` [Example 190]: the negative-log IC50 (pIC50) in test [1] was ≥ 7.00; in test [2], 6.00 to 6.30; in the test on Miapaca-2 cells, 5.00 to 6.00; in the test with A375 cells it was ≥ 7.00.

On to `CNC(=O)c1cc(-c2cccc(-c3cc(NC(=O)c4ccnc(C(C)(C)C#N)c4)ccc3C)c2)cnn1` [Example 191], for which the pIC50 in test [1] was ≥ 7.00; in test [2], 5.00 to 6.00; in the test on A375 cells it was ≥ 7.00.

Turning to `CNC(=O)c1cc(-c2cccc(-c3cc(NC(=O)c4ccnc(C(C)(C)C#N)c4)cnc3C)c2)ccn1` [Example 192], the pIC50 in test [1] is ≥ 7.00; in test [2] it was 5.00 to 6.00; in the test on Miapaca-2 cells, 5.00 to 6.00; with A375 cells it was ≥ 7.00.

In the case of `CNC(=O)c1cc(-c2nc(-c3cc(NC(=O)c4ccnc(C(C)(C)C#N)c4)ccc3C)cc(C3CC3)n2)ccn1` [Example 196], the pIC50 in test [1] is 6.30 to 7.00; in test [2], 5.00 to 6.00; in the test with A375 cells, ≥ 7.00.

Regarding `CNC(=O)c1cc(-c2ccnc(-c3cc(NC(=O)c4ccnc(C(C)(C)C#N)c4)cnc3C)n2)ccn1` [Example 199], the pIC50 in test [1] was 6.30 to 7.00; in test [2], 5.00 to 6.00; in the test on A375 cells, 5.00 to 6.00.

Turning to `CNC(=O)c1cc(-c2cccc(-c3cc(NC(=O)c4ccnc(C(C)(C)C#N)c4)cnc3C)c2)cnn1` [Example 201], the values for the pIC50 (in test [1]; in test [2]; with A375 cells) were 6.30 to 7.00, 5.00 to 6.00 and 6.30 to 7.00, respectively.

Take `CNC(=O)c1cc(-c2cc(-c3cc(NC(=O)c4ccnc(C(C)(C)C#N)c4)ccc3F)ccn2)ccn1` [Example 205]: the results for the pIC50 (in test [1]; in test [2]; with A375 cells) were ≥ 7.00, 5.00 to 6.00 and 6.30 to 7.00, respectively.

Consider `Cc1ncc(NC(=O)c2ccnc(C(C)(C)C#N)c2)cc1-c1cccc(-c2cc(N)ncn2)c1` [Example 207], for which the pIC50 in test [1] is ≥ 7.00; in test [2], 5.00 to 6.00; in the test with A375 cells, 5.00 to 6.00.

As for `Cc1ncc(NC(=O)c2ccnc(C(C)(C)C#N)c2)cc1-c1cccc(-c2cc(NC(=O)C(C)(C)C)ncn2)c1` [Example 213], the values for the pIC50 (in test [1]; in test [2]; in the test on Miapaca-2 cells) were 6.00 to 6.30, 5.00 to 6.00 and 5.00 to 6.00, respectively.

For `Cc1ccc(NC(=O)c2ccnc(C(C)(C)C#N)c2)cc1-c1cccc(-c2ccnc(NC(=O)C3CC3)c2)c1` [Example 223], the pIC50 is ≥ 7.00 in test [1], 6.00 to 6.30 in test [2] and ≥ 7.00 in the test with A375 cells.

On to `COC(C)(C)C(=O)Nc1cc(-c2cc(-c3cc(NC(=O)c4ccnc(C(C)(C)C#N)c4)ccc3C)ccn2)ccn1` [Example 237], for which the pIC50 is 6.30 to 7.00 in test [1], 5.00 to 6.00 in test [2] and 5.00 to 6.00 in the test with A375 cells.

In the case of `CC(C)(C#N)c1cc(C(=O)Nc2ccc(C#N)c(-c3cccc(-c4cc(NC(=O)C5CC5)ncn4)c3)c2)ccn1` [Example 240], the figures for the pIC50 (in test [1]; in test [2]; with A375 cells) were ≥ 7.00, 5.00 to 6.00 and 6.30 to 7.00, respectively.

In the case of `CNC(=O)c1cc(-c2ccnc(-c3cc(NC(=O)c4ccnc(C(C)(C)C#N)c4)c(F)cc3C)n2)ccn1` [Example 242], the pIC50 is 6.30 to 7.00 in test [1], 5.00 to 6.00 in test [2] and 6.00 to 6.30 in the test with A375 cells.

On to `CNC(=O)c1cc(-c2ccnc(-c3cc(NC(=O)c4ccnc(C(C)(C)F)c4)ccc3C)n2)ccn1` [Example 246], for which the figures for the pIC50 (in test [1]; in test [2]; in the test on A375 cells) were ≥ 7.00, 5.00 to 6.00 and 6.30 to 7.00, respectively.

With `CNC(=O)c1cc(-c2cc(-c3cc(NC(=O)c4ccnc(C(C)(C)C#N)c4)ccc3C#N)ccn2)ccn1` [Example 247], the pIC50 in test [1] is 6.30 to 7.00; in test [2], 5.00 to 6.00; in the test with A375 cells, 5.00 to 6.00.

Take `Cc1ccc(NC(=O)c2ccnc(C3CC3)c2)cc1-c1cccc(-c2cc(NC(=O)C3CC3)ncn2)c1` [Example 255]: the values for the pIC50 (in test [1]; in test [2]; in the test on A375 cells) were ≥ 7.00, 5.00 to 6.00 and ≥ 7.00, respectively.

Consider `CNC(=O)c1cc(-c2cc(-c3cc(NC(=O)c4ccnc(C(C)(C)C#N)c4)ccc3F)cc(C)n2)ccn1` [Example 259], for which the pIC50 in test [1] was ≥ 7.00; in test [2], 5.00 to 6.00; in the test on A375 cells, 6.00 to 6.30.

Consider `CCNC(=O)c1cc(-c2cc(-c3cc(NC(=O)c4ccnc(C(C)(C)C#N)c4)ccc3C)ccn2)ccn1` [Example 266], for which the pIC50 is ≥ 7.00 in test [1], 5.00 to 6.00 in test [2] and 6.30 to 7.00 in the test with A375 cells.

On to `CNC(=O)c1cc(-c2ccnc(-c3cc(NC(=O)c4ccnc(C(C)(C)OC)c4)ccc3C)n2)ccn1` [Example 268], for which the figures for the pIC50 (in test [1]; in test [2]; in the test with A375 cells) were 6.30 to 7.00, 5.00 to 6.00 and 6.30 to 7.00, respectively.

Turning to `Cc1ncc(NC(=O)c2ccnc(C(C)C)c2)cc1-c1cccc(-c2ccnc(NC(=O)C3CC3)c2)n1` [Example 269], the values for the pIC50 (in test [1]; in test [2]; with A375 cells) were ≥ 7.00, 5.00 to 6.00 and ≥ 7.00, respectively.

For `Cc1cc(F)c(NC(=O)c2ccnc(C(C)(C)F)c2)cc1-c1cncc(-c2ccnc(NC(=O)C3CC3)c2)n1` [Example 276], the pIC50 was ≥ 7.00 in test [1], 6.30 to 7.00 in test [2] and ≥ 7.00 in the test with A375 cells.

As for `Cc1ncc(NC(=O)c2ccnc(C3CC3)c2)cc1-c1ccnc(-c2ccnc(NC(=O)C3CC3)c2)n1` [Example 277], the pIC50 in test [1] is ≥ 7.00; in test [2], 5.00 to 6.00; with A375 cells, 6.00 to 6.30.
